# Reference: ChEMBL document CHEMBL4813993, “Design and synthesis of diosgenin derivatives as apoptosis inducers through mitochondria-related pathways” (Eur J Med Chem, 2021)
# Tests used:
# K562 = assay: Cytotoxicity against human K562 cells assessed as inhibition of cell growth incubated for 48 hrs by CCK-8 assay; type: functional, cell-based; details: K562, 48 h
# T-24 [1] = assay: Cytotoxicity against human T24 cells assessed as inhibition of cell growth incubated for 48 hrs by CCK-8 assay; type: functional, cell-based; details: T-24, 48 h
# MKN-45 [2] = assay: Cytotoxicity against human MNK45 cells assessed as inhibition of cell growth incubated for 48 hrs by CCK-8 assay; type: functional, cell-based; details: MKN-45, 48 h
# HepG2 = assay: Cytotoxicity against human HepG2 cells assessed as inhibition of cell growth incubated for 48 hrs by CCK-8 assay; type: functional, cell-based; details: HepG2, 48 h
# A549 [3] = assay: Cytotoxicity against human A549 cells assessed as inhibition of cell growth incubated for 48 hrs by CCK-8 assay; type: functional, cell-based; details: A549, 48 h
# MCF7 = assay: Cytotoxicity against human MCF7 cells assessed as inhibition of cell growth incubated for 48 hrs by CCK-8 assay; type: functional, cell-based; details: MCF7, 48 h
# T-24 [4] = assay: Potency index, ratio of diosgenin IC50 to test compound IC50 for cytotoxicity against human T24 cells assessed as inhibition of cell growth incubated for 48 hrs by CCK-8 assay; type: functional
# MKN-45 [5] = assay: Potency index, ratio of diosgenin IC50 to test compound IC50 for cytotoxicity against human MNK45 cells assessed as inhibition of cell growth incubated for 48 hrs by CCK-8 assay; type: functional
# A549 [6] = assay: Potency index, ratio of diosgenin IC50 to test compound IC50 for cytotoxicity against human A549 cells assessed as inhibition of cell growth incubated for 48 hrs by CCK-8 assay; type: functional
SMILES,IC50 (K562) [µM],IC50 (T-24 [1]) [µM],IC50 (MKN-45 [2]) [µM],IC50 (HepG2) [µM],IC50 (A549 [3]) [µM],IC50 (MCF7) [µM],Ratio IC50 (T-24 [4]),Ratio IC50 (MKN-45 [5]),Ratio IC50 (A549 [6])
C[C@@H]1CC[C@@]2(OC1)O[C@H]1C[C@H]3[C@@H]4CC=C5C[C@@H](OC(=O)[C@@H]6CCCN6)CC[C@]5(C)[C@H]4CC[C@]3(C)[C@H]1[C@@H]2C,7.47,9.65,5.47,16.4,20.6,11.4,–,–,–
C[C@@H]1CC[C@@]2(OC1)O[C@H]1C[C@H]3[C@@H]4CC=C5C[C@@H](OC(=O)CN)CC[C@]5(C)[C@H]4CC[C@]3(C)[C@H]1[C@@H]2C [GLYCINE DIOSGENYL ESTER],7.68,9.98,16.2,14.9,18,10.3,–,–,–
C[C@@H]1CC[C@@]2(OC1)O[C@H]1C[C@H]3[C@@H]4CC=C5C[C@@H](OC(=O)[C@@H](N)Cc6ccccc6)CC[C@]5(C)[C@H]4CC[C@]3(C)[C@H]1[C@@H]2C,8.59,10.6,11.4,26.1,> 30,25.4,–,–,–
CC(=O)O[C@H]1CC[C@@]2(C)C(=CC[C@H]3[C@@H]4C[C@@H]5O[C@H](CC[C@@H](C)COC(=O)CN)[C@@H](C)[C@@H]5[C@@]4(C)CC[C@@H]32)C1,15.2,10.4,17.3,> 30,> 30,> 30,–,–,–
CC(C)C[C@H](N)C(=O)O[C@H]1CC[C@@]2(C)C(=CC[C@H]3[C@@H]4C[C@@H]5O[C@]6(CC[C@@H](C)CO6)[C@@H](C)[C@@H]5[C@@]4(C)CC[C@@H]32)C1,10.5,8.83,10.4,> 30,> 30,> 30,–,–,–
C[C@@H]1CC[C@@]2(OC1)O[C@H]1C[C@H]3[C@@H]4CC=C5C[C@@H](OC(=O)[C@H](C)N)CC[C@]5(C)[C@H]4CC[C@]3(C)[C@H]1[C@@H]2C,15.5,9.1,11.5,> 30,18.1,> 30,–,–,–
C[C@@H]1CC[C@@]2(OC1)O[C@H]1C[C@H]3[C@@H]4CC=C5C[C@@H](O)CC[C@]5(C)[C@H]4CC[C@]3(C)[C@H]1[C@@H]2C [DISOGENIN],30,28.9,78.3,48.4,32.9,28.5,–,–,–
CC(=O)O[C@H]1CC[C@@]2(C)C(=CC[C@H]3[C@@H]4C[C@@H]5O[C@H](CC[C@@H](C)COC(=O)[C@H](C)N)[C@@H](C)[C@@H]5[C@@]4(C)CC[C@@H]32)C1,17.5,11.4,10.7,> 30,27.6,> 30,–,–,–
C[C@@H]1CC[C@@]2(OC1)O[C@H]1C[C@H]3[C@@H]4CC=C5C[C@@H](OC(=O)[C@@H](N)Cc6c[nH]c7ccccc67)CC[C@]5(C)[C@H]4CC[C@]3(C)[C@H]1[C@@H]2C,8.47,7.06,5.21,17,12.9,9.6,4.1,15,–
CC(=O)O[C@H]1CC[C@@]2(C)C(=CC[C@H]3[C@@H]4C[C@@H]5O[C@H](CC[C@@H](C)COC(=O)[C@@H](N)CC(C)C)[C@@H](C)[C@@H]5[C@@]4(C)CC[C@@H]32)C1,11.5,5.67,12.1,12.9,> 30,21.2,–,–,–
CC(=O)O[C@H]1CC[C@@]2(C)C(=CC[C@H]3[C@@H]4C[C@@H]5O[C@H](CC[C@@H](C)COC(=O)[C@@H](N)C(C)C)[C@@H](C)[C@@H]5[C@@]4(C)CC[C@@H]32)C1,6.77,4.94,7.01,12.3,4.92,17.8,–,–,6.7
CC(C)[C@H](N)C(=O)O[C@H]1CC[C@@]2(C)C(=CC[C@H]3[C@@H]4C[C@@H]5O[C@]6(CC[C@@H](C)CO6)[C@@H](C)[C@@H]5[C@@]4(C)CC[C@@H]32)C1,16.5,11.8,13.4,27.7,23,> 30,–,–,–
O=c1[nH]cc(F)c(=O)[nH]1 [FLUOROURACIL],20.2,12.9,21.4,18.9,–,18.6,–,–,–
CC(=O)O[C@H]1CC[C@@]2(C)C(=CC[C@H]3[C@@H]4C[C@@H]5O[C@H](CC[C@@H](C)COC(=O)[C@@H]6CCCN6)[C@@H](C)[C@@H]5[C@@]4(C)CC[C@@H]32)C1,27.7,12.2,17.3,18.5,22.3,> 30,–,–,–
CC(=O)O[C@H]1CC[C@@]2(C)C(=CC[C@H]3[C@@H]4C[C@@H]5O[C@H](CC[C@@H](C)COC(=O)[C@@H](N)Cc6ccccc6)[C@@H](C)[C@@H]5[C@@]4(C)CC[C@@H]32)C1,15.8,8.22,> 30,18.8,27.2,> 30,–,–,–
